Laboratory results published in patent publication US12570684B2 (UNIVERSITY OF TENNESSEE RESEARCH FOUNDATION, priority 2020, dated 2026).
Entries after “also recorded” stand apart in the source; their conditions may differ.

How the values were obtained:
Snail [1] = experiment: Immunofluorescence assay using an anti-Snail antibody; format: cell-based
DPAGT1 (Human) = target: T1, DPAGT1 (Human) (Homo sapiens, UniProt Q9H3H5); experiment: DPAGT1 assay; format: biochemical
T1 construct: made in house; host or cells: Expi293 cells (suspension)
T1 sequence (Q9H3H5 1-408): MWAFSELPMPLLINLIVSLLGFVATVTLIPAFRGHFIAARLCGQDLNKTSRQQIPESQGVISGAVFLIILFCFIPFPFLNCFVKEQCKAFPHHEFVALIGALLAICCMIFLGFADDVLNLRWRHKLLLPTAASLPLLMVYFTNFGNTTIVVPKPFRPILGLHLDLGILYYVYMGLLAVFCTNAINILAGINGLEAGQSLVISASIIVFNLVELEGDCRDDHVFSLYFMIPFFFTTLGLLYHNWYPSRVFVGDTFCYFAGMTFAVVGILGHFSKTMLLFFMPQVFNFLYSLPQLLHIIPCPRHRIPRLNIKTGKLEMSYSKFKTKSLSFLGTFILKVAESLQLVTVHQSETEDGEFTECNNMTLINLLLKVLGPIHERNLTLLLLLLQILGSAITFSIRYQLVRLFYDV
Protocol: DPAGT1 expression and purification. DPAGT1 was expressed in suspended Expi293 cells for 36 h. The cells were lysed by drawing through a 26 g needle (10 times) and membrane protein was extracted using buffer containing 1% decyl f3-D-maltopyranoside detergent. DPAGT1 was purified using HA-agarose resin and a superdex 200 size exclusion column.

cell lines in Table 2 = experiment: MTT assays, summary over the cell lines in Table 2; format: cell-based
Protocol: Cell lines. The human primary PDAC cell lines PANC-1 (ATCC CRL 1469); Capan-2 (ATCC HTB-80) and metastatic PDAC cell lines Capan-1 (ATCC HTB-79), AsPC-1 (ATCC CRL-1682), L1210 (ATCC CCL-219), KB (ATCC CCL-17), HeLa, SiHa (ATCC HTB-35), HCT-116 (ATCC CCL-247), DLD-1 (ATCC CCL221), hTERT-HPNE (ATCC CRL-4023), Vero (ATCC CCL-81) were purchased from the ATCC. The cell lines were cultured and maintained in the media as recommended by the supplier. The cell lines were regularly tested for mycoplasma contamination and authenticated. In addition to ATCC cell lines, Dr. Glazer's lab generated patient-derived PDAC cell line, PD002. PD002 Cells were maintained and cultured in DMEM medium supplemented with 20% FBS and 100 IU/mL penicillin and incubated at 37° C. with 5% CO2.
MTT cytotoxicity assay. To study the effect of treatment with DPAGT1 inhibitors on the growth and proliferation of cells, a fixed number of cells (5×10^4 cells/well, 196 μL) were plated in a 96 well plate. Into each well 5 μL of drug concentration was added. After 72 h of incubation with drugs at 37° C., 5% CO2, 10 μL of MTT solution (5 mg/mL in PBS) was added and incubated another 3 h at 37° C., 5% CO2. The medium was removed, and DMSO (200 μL/well) was added. Viability was assessed on the basis of cellular conversion of MTT into a purple formazan product. The absorbance of the colored formazan product was measured at 570 nm by BioTek Synergy HT Spectrophotometer.

AglH (M. jannaschii) = target: T2, AglH (M. jannaschii) (Methanocaldococcus jannaschii, UniProt Q58513); experiment: AglH assay; settings: read-out: IC50 AglH (M. jannaschii)
T2 sequence (Q58513 1-301): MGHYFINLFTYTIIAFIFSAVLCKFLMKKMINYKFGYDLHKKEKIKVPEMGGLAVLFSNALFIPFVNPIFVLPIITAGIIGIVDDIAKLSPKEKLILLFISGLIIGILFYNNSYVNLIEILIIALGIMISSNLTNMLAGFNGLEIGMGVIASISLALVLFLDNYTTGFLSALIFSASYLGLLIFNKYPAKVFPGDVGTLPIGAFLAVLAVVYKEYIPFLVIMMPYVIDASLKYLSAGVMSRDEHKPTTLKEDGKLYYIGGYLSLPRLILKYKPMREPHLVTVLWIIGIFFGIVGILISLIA

[2] = tested on: Myocobacterium tuberculosis H37Rv, Mycobacterium avium 2285, Mycobacterium smegmatis (ATCC607); experiment: Antimycobacterial activity (MIC); format: cell-based, Mycobacterium spp.; settings: M. tuberculosis H37Rv, M. avium 2285, M. smegmatis (ATCC607)
PD002 = experiment: Kinetic proliferation assay (IncuCyte); format: cell-based
Protocol: Kinetic Proliferation Assay. To study the effect of treatment with DPAGT1 inhibitors on the growth and proliferation of cells, a fixed number of cells (2×10^4) were plated in multiple wells of a 96 well plate, incubated for 24 h to let cells settle down. Then, CPPB (5) was added (0-50 μM). Images were obtained every 4 h using an IncuCyte Live-Cell Imaging System (Essen BioScience, Ann Arbor, MI). After 72 h, cell proliferation was quantified using the metric phase object confluence (POC), a measurement of the area of the field of view that is covered by cells, which is calculated by the integrated software.

[3] = target: MraY (Hydrogenivirga sp.) (Hydrogenivirga sp. 128-5-R1-1, UniProt Z9Y2G8N0L0); experiment: MraY assay; format: biochemical
Protocol: Expression and purification of HyMraY. The gene mraY of Hydrogenivirga spp. 128-5-R1-1 was cloned with a N-terminal His6 tag into a pET22b vector. […] The proteins were purified using a nickel, cation exchange, and size exclusion chromatography.
MraY assay. MraY assay substrates, Park's nucleotide-N^ε-C6-dansylthiourea, neryl phosphate, were chemically synthesized according to the reported procedures.^7 Park's nucleotide-N^ε-C6-dansylthiourea (2 mM stock solution, 1.88 jiL), MgCl2 (0.5 M, 5 jiL), KCl (2 M, 5 jiL), Triton X-100 (0.5%, 5.63 jiL), Tris buffer (pH 8.0, 50 mM), neryl phosphate (0.1 M, 2.25 jiL), and inhibitor molecule (0-50 .ig/mL in Tris buffer) were placed in a 1.5 mL Eppendorf tube. […] (26° C.) and quenched with CHCl3 (100 jiL). […] The aqueous phase was assayed via reverse-phase HPLC.

Snail [4] = experiment: Western blot of Snail in cervical cancer; format: cell-based; settings: effective at 0.2 μM

Chain of MraY (Hydrogenivirga sp.) (Z9Y2G8N0L0 7-365 limits assumed): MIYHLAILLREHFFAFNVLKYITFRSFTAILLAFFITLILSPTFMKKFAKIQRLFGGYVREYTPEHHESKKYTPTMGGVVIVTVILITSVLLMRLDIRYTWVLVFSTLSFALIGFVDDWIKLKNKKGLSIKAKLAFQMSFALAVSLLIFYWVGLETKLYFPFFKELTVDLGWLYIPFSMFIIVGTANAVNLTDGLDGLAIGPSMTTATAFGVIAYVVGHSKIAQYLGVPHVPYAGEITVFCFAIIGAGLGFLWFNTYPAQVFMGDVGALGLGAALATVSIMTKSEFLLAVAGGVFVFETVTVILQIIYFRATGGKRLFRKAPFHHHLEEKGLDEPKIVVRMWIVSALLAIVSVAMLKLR

Substance: (2S,3S,4S)-2-((1R)-2-Amino-1-((2S,5R)-5-(2,4-dioxo-3,4-dihydropyrimidin-1(2H)-yl)-4-hydroxy-3-methoxytetrahydrofuran-2-yl)-2-oxoethoxy)-3,4-dihydroxy-N-(4-(4-(4-(trifluoromethoxy)-phenyl)piperidin-1-yl)benzyl)-3,4-dihydro-2H-pyran-6-carboxamide [CPPB]
- Snail expression in pancreatic cancer cells (Snail [1]; PANC-1, AsPC-1, Capan-2, PD002): decreased by the treatment with CPPB in a concentration dependent manner; also recorded: decreased the Snail expression
- Snail expression level in HCT-116 (Snail [1]; between 0.05 and 2.0 μM): not noticeably changed
- DPAGT1 inhibitory activity (in words) (DPAGT1 (Human)): high nM range DPAGT1 inhibitors
- IC50 (DPAGT1 (Human)): 200 nM
- DPAGT1 inhibitory strength relative to I-CPPB (DPAGT1 (Human); CPPB vs. I-CPPB): three times stronger
- DPAGT1 inhibitory activity relative to tunicamycin (DPAGT1 (Human); CPPB vs. tunicamycin): ~7.5 times
- viability of all pancreatic cancers tested (MTT) (cell lines in Table 2; 20 μM concentration): remained viable
- cytotoxicity against a series of cancer and healthy cell lines (cell lines in Table 2; at 10 μM or higher concentrations): not cytotoxic
- IC50 (AglH (M. jannaschii)): 150 nM
- MIC [2]: 6.25 to 12.5 µg/mL
- phase area confluence of PD002 culture after 72 h (PD002; 50 μM, same as at time 0 h, control (PBS) ca. 70%): 10-13%
- cell proliferation inhibited at time 72 h (PD002; 0.2-20 μM): ca. 20%
- IC50 [3]: 10300 nM
- Snail expression in SiHa (Snail [4]): inhibited by treatment of CPPB in a concentration dependent manner
